The source of these data is patent US20080208071A1, “Measurement of Gastric Acid Secretion” (THE LEEDS TEACHING HOSPITALS NHS TRUST, priority 2005, published 2008).

In data set [1] the test system is gastric acid secretion. Nature of the data set: 13C calcium carbonate breath test, Example 1 (250 mg every 15 minutes over 4 hours). The following applies: human volunteer; oral 250 mg calcium carbonate (10 atom % 13C) every 15 minutes over 4 hours; two experiments; FIG. 1.
Description: At 10 minute intervals, samples of exhaled (expired) air were obtained from the subject by breathing into a suitable collection vessel such as a test tube. The expired air was subjected to mass spectrometry to measure the ratio of ^13C to ^12C in the exhaled carbon dioxide.
In a second experiment the subject was treated with omeprazole 20 mg daily for two weeks and the experiment repeated twice under otherwise identical conditions.
The subject then did two further experiments again under otherwise identical conditions but now including a daily dosage of 40 mg of omeprazole.
Data set [2] deals with gastric acid secretion. Nature of the data set: 13C calcium carbonate breath test, Example 2 (initial 2 g, then 500 mg every 5 minutes over 3 hours). The following applies: human volunteer; oral 2 g then 500 mg calcium carbonate (10 atom % 13C) every 5 minutes over 3 hours; two experiments; FIG. 4.

For `O=C([O-])[O-].[Ca+2]` [^13C labelled calcium carbonate, calcium carbonate], the “time at which the rise in 13C in exhaled carbon dioxide begins to plateau” value in data set [1] and in data set [2] was “about 120 minutes” in each case.
